Test results taken from patent US8586603B2, “Aminotetraline derivatives” (priority 2009, dated 2013).

How the values were obtained:
[1] = target: T1, human dopamine receptor subtype hD4.4 (Homo sapiens, UniProt P21917); assay: Receptor binding assay, [3H]spiperone competition, CHO cell membranes; conditions: for Ki: means of 2-8 individual experiments each done as triplicate; for selectivity ratio hD4.4: vs p5-HT1a
T1 construct: expressed in transfected cells; host or cells: CHO
T1 sequence (P21917 1-419): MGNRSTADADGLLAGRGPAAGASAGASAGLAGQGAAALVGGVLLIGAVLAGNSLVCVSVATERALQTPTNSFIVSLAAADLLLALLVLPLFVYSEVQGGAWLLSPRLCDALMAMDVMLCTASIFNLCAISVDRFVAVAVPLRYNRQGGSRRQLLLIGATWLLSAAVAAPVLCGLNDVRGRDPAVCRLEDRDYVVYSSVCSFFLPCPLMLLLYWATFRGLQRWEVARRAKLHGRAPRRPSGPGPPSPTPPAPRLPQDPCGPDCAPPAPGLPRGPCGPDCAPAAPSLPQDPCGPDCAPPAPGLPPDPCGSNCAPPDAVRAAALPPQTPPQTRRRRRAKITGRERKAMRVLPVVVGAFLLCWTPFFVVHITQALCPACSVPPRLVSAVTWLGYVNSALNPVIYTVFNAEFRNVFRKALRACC
Method: Receptor binding data were determined when performing competition binding assays with membrane preparations of cloned cells (stably transfected Chinese Hamster Ovary cells (CHO)) expressing the human receptors and the following radioligands: [^3H]spiperone at the human dopamine receptor subtypes hD2long, hD2short, D3, and hD4.4. […].
(§1) Selectivity ratios were calculated by division of the Ki values of the various compounds at the respective receptors through the Ki values at the 5HT1a receptor.

[2] = target: T2, human dopamine receptor subtype hD3 (Homo sapiens, UniProt P35462); assay: as above; conditions: for Ki: means of 2-8 individual experiments each done as triplicate; for selectivity ratio hD3: vs p5-HT1a
T2 construct: expressed in transfected cells; host or cells: CHO
Method: (§2) Receptor binding data were determined when performing competition binding assays with membrane preparations of cloned cells (stably transfected Chinese Hamster Ovary cells (CHO)) expressing the human receptors and the following radioligands: [^3H]spiperone at the human dopamine receptor subtypes hD2long, hD2short, D3, and hD4.4.
as §1

[3] = target: T3, human dopamine receptor subtype hD2long (Homo sapiens, UniProt P14416); assay: as above; conditions: for Ki: means of 2-8 individual experiments each done as triplicate; for selectivity ratio hD2long: vs p5-HT1a
T3 construct: expressed in transfected cells; host or cells: CHO
Method: as §2, §1

[4] = target: T4, human dopamine receptor subtype hD2short (Homo sapiens, UniProt P14416); assay: as above; conditions: for Ki: means of 2-8 individual experiments each done as triplicate; for selectivity ratio hD2short: vs p5-HT1a
T4 construct: expressed in transfected cells; host or cells: CHO
Method: as §2, §1

[5] = target: T5, porcine cortical p5-HT2 serotonin receptor (Sus scrofa, UniProt P50129); assay: Receptor binding assay, [3H]ketanserin competition, porcine cortical membranes; conditions: for Ki: means of 2-8 individual experiments each done as triplicate; for selectivity ratio p5-HT2: vs p5-HT1a
T5 construct: membrane homogenates prepared from porcine striatal or cortical tissue; from tissue; host or cells: porcine cortex

[6] = target: T6, porcine striatal pD1 dopamine receptor (Sus scrofa, UniProt P50130); assay: Receptor binding assay, [3H]SCH 23390 competition, porcine striatal membranes; conditions: for Ki: means of 2-8 individual experiments each done as triplicate; for selectivity ratio pD1: vs p5-HT1a
T6 construct: membrane homogenates prepared from porcine striatal or cortical tissue; from tissue; host or cells: porcine striatum

[7] = system: porcine cortical pα1 adrenergic receptor; assay: Receptor binding assay, [3H]prazosin competition, porcine cortical membranes; conditions: vs p5-HT1a
[8] = target: T7, porcine cortical pα1 adrenergic receptor; assay: as above; conditions: means of 2-8 individual experiments each done as triplicate
T7 construct: Ki pα1; other: means of 2-8 individual experiments each done as triplicate

[9] = target: T8, porcine cortical p5-HT1a serotonin receptor (Sus scrofa, UniProt A0A4X1UTF5); assay: Receptor binding assay, [3H]WAY100635 competition, porcine cortical membranes; conditions: for Ki: means of 2-8 individual experiments each done as triplicate; for selectivity ratio p5-HT1a: reference receptor of the ratio (=1)
T8 construct: membrane homogenates prepared from porcine striatal or cortical tissue; from tissue; host or cells: porcine cortex
T8 sequence (A0A4X1UTF5 1-422): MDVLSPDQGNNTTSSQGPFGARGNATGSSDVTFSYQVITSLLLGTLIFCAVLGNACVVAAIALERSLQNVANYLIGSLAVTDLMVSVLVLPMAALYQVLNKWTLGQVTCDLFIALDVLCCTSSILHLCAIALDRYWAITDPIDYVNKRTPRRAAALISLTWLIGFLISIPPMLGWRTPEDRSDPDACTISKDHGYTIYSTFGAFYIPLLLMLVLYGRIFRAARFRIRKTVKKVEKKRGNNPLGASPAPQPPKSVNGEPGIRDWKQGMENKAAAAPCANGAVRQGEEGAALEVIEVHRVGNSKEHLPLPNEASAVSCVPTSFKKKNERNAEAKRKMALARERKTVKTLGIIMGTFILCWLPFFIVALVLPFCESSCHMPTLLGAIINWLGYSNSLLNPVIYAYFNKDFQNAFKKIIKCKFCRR

human 5-HT1a receptor = target: T9, human 5-HT1a receptor (Homo sapiens, UniProt P08908); assay: [35S]GTPγS functional assay; type: biochemical
T9 construct: expressed in transfected cells
T9 sequence (P08908 1-422): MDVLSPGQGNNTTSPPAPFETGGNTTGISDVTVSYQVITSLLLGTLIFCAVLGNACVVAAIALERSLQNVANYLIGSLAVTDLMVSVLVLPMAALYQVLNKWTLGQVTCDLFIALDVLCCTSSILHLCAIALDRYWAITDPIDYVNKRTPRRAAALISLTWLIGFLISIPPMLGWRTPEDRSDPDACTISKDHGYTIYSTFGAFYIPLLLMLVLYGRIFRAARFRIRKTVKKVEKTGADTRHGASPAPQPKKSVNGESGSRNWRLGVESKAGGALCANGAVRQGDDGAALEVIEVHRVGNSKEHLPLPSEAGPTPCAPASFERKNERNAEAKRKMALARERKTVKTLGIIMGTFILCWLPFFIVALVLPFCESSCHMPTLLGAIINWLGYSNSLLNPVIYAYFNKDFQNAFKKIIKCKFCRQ
Method: Specific binding of [^35S]GTPγS is stimulated by activation of the stably expressed human 5-HT1a receptor in a dose-dependent way by agonists for this GPCR and is determined by measuring the radioactive label of the membrane. Non-linear regression analysis of the resulting dose-response curves yields the EC50 value in [nM] representing the half maximal concentration which is necessary to activate the receptor completely.

T5 sequence (P50129 whole entry): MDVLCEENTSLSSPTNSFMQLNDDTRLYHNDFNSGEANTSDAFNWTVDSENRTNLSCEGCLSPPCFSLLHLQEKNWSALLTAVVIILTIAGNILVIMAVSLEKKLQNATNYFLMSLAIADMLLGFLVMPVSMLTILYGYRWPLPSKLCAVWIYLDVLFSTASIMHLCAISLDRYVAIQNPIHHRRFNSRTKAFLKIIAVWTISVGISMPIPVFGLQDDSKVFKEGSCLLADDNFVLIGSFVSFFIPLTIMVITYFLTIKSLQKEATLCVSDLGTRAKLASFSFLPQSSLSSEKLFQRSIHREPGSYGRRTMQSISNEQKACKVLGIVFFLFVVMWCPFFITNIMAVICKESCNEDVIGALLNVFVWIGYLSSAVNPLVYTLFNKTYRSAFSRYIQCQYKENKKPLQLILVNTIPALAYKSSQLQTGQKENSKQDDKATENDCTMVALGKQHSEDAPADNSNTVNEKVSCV
T6 sequence (P50130 whole entry): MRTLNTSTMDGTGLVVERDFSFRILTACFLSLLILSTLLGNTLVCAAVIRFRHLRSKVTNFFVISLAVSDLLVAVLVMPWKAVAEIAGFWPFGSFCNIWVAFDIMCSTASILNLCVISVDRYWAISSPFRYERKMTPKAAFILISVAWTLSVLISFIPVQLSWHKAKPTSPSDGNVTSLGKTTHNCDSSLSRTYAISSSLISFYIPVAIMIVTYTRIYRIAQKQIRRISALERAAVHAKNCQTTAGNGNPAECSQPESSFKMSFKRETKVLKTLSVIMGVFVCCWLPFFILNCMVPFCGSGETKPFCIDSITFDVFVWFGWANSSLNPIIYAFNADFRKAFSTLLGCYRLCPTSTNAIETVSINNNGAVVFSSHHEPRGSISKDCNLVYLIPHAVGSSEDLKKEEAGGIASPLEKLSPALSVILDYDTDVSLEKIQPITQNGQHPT
T3 sequence (P14416 whole entry): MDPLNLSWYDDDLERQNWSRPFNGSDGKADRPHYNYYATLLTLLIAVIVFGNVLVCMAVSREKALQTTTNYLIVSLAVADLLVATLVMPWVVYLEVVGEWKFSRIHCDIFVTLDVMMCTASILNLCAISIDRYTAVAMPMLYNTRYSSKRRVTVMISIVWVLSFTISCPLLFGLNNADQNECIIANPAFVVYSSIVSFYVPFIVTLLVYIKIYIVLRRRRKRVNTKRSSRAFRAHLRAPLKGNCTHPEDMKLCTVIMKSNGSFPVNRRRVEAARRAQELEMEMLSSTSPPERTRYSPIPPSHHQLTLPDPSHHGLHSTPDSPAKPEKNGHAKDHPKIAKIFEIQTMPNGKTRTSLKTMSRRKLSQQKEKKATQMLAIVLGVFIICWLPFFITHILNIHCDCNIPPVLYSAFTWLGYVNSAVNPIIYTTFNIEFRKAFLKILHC
T2 sequence (P35462 whole entry): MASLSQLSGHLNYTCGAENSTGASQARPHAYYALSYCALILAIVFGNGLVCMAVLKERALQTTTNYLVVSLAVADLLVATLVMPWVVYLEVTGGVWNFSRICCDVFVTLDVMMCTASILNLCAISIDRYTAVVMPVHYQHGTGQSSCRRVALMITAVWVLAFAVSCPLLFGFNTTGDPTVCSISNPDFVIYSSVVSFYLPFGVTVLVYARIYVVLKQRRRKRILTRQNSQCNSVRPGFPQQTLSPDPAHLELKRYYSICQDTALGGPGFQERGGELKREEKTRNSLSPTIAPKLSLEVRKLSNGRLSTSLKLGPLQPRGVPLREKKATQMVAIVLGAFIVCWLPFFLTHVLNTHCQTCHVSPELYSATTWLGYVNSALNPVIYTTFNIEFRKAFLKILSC
T4 sequence (P14416 1-414 isoform P14416-2): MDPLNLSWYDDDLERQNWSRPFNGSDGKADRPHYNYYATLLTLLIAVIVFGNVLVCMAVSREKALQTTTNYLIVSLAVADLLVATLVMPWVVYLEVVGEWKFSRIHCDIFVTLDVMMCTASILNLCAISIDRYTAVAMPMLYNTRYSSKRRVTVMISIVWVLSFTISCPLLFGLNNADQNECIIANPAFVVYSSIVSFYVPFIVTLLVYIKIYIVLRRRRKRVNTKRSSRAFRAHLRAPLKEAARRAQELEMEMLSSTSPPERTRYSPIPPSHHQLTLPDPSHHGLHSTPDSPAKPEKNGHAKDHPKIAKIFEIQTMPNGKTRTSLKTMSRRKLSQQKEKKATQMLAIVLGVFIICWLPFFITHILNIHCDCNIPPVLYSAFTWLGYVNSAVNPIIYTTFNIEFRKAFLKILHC

EC50 (human 5-HT1a receptor; mean values of 2-8 individual experiments) [µM] | Emax (human 5-HT1a receptor; read-out: intrinsic activity [% rel. to serotonin]) [%] | Molecule | Ki [1] [µM] | selectivity ratio hD4.4 [1] | Ki [2] [µM] | selectivity ratio hD3 [2] | Ki [3] [µM] | selectivity ratio hD2long [3] | Ki [4] [µM] | selectivity ratio hD2short [4] | Ki [5] [µM] | selectivity ratio p5-HT2 [5] | Ki [6] [µM] | selectivity ratio pD1 [6] | selectivity ratio pα1 [7] | Ki [8] [µM] | Ki [9] [µM] | selectivity ratio p5-HT1a [9]
 |  | CCCN(CCc1cccs1)[C@H]1CCc2cccc(O)c2C1 [Compound 1b, (S)—N-(8-Hydroxytetralin-2-yl)-N-propyl-N-[2-(2-thienyl)ethyl]amine] | 0.69 | 380 | 0.049 | 26 | 0.52 | 290 | 0.29 | 160 | 5.5 | 3 100 | 5.4 | 3 000 | 110 | 0.2 | 0.0018 | 1
0.0063 | 91 | CCCN(CCc1cccs1)C1CCc2cccc(OC)c2C1 (stereo not shown) [Compound 2, N-(8-Methoxytetralin-2-yl)-N-propyl-N-[2-(2-thienyl)ethyl]amine] | 0.39 |  | 0.057 |  | 0.16 |  | 0.39 |  | 12 |  | 6.7 |  |  | 0.2 | 0.0029 | 
 |  | CCCN(CCc1cccs1)[C@H]1CCc2cccc(OC)c2C1 [Compound 2b, (S)—N-(8-Methoxytetralin-2-yl)-N-propyl-N-[2-(2-thienyl)ethyl]amine] | 0.76 |  | 0.032 |  | 0.085 |  | 0.058 |  | 3.9 |  | 3.3 |  |  | 0.14 | 0.0067 | 
 |  | CCCN(CCc1ccccc1)C1CCc2cccc(O)c2C1 (stereo not shown) [Compound 3, N-(8-Hydroxytetralin-2-yl)-N-(2-phenylethyl)-N-propylamine] | 0.59 | 950 | 0.19 | 310 | 0.76 | 1 200 | 0.17 | 270 | 5.8 | 9 400 | 9.1 | 15 000 | 230 | 0.14 | 0.00062 | 1
 |  | CCCN(CCc1ccc(O)cc1)C1CCc2cccc(O)c2C1 (stereo not shown) [Compound 5, N-[2-(4-Hydroxyphenyl)ethyl]-N-(8-hydroxytetralin-2-yl)-N-propylamine] | 0.57 | 520 | 0.095 | 86 | 0.34 | 310 | 0.086 | 80 | 6.6 | 6 000 | 6.2 | 5 600 | 79 | 0.087 | 0.0011 | 1
 |  | CCCN(CCc1ccc(OC)cc1)C1CCc2cccc(OC)c2C1 (stereo not shown) [Compound 6, N-[2-(4-Methoxyphenyl)ethyl]-N-(8-methoxytetralin-2-yl)-N-propylamine] | 0.47 |  | 0.11 |  | 0.34 |  | 0.26 |  | 4.9 |  | 9.5 |  |  | 0.23 | 0.0055 | 
 |  | CCCN(CCc1cc(C)ccc1C)C1CCc2cccc(OC)c2C1 (stereo not shown) [Compound 8, N-(8-Methoxytetralin-2-yl)-N-propyl-N-[2-(2,5-dimethyl)phenylethyl]amine] | 0.94 |  | 0.11 |  | 0.3 |  | 0.18 |  | 4.4 |  | 6.2 |  |  | 0.51 | 0.024 | 
 |  | CCCN(CCc1cc2ccc1CCc1ccc(cc1)CC2)C1CCc2cccc(O)c2C1 (stereo not shown) [Compound 13, N-(8-Hydroxytetralin-2-yl)-N-[2-([2.2]paracyclophan-4-yl)ethyl]-N-propylamine] | 0.087 | 5.8 | 0.17 | 11 | 0.99 | 66 | 0.64 | 43 | 2.1 | 140 | 3.5 | 230 | 62 | 0.93 | 0.015 | 1
 |  | CCCN(CCc1cc2ccc1CCc1ccc(cc1)CC2)C1CCc2cccc(OC)c2C1 (stereo not shown) [Compound 14, N-(8-Methoxytetralin-2-yl)-N-propyl-N-[2-([2.2]paracyclophan-4-yl)ethyl]-amine] | 0.11 | 2.2 | 0.033 | 0.66 | 0.048 | 0.96 | 0.035 | 0.70 | 7.3 | 150 | 1.9 | 38 | 5.6 | 0.28 | 0.05 | 1
 |  | CCCN(CCC)C1CCc2cccc(O)c2C1 (stereo not drawn) [R-(+)-8-OH-DPAT, reference compound] | 0.21 |  |  |  |  |  |  |  | 2.1 |  | 3.3 |  |  | 0.25 | 0.0012 | 
 |  | N-(2-Adamantylethyl)-N-(8-methoxytetralin-2-yl)-N-propylamine [Compound 10] | 1.8 | 28 | 0.26 | 4.0 | 0.38 | 5.8 | 0.19 | 2.9 | 14 | 220 | 12 | 180 | 75 | 4.9 | 0.065 | 1
 |  | N-(2-Ferrocenylethyl)-N-(8-hydroxytetralin-2-yl)-N-propylamine [Compound 11] | 0.0074 |  | 0.052 |  | 0.034 |  | 0.016 |  | 0.93 |  | 3.1 |  |  | 0.17 | 0.00032 | 
 |  | N-(2-Ferrocenylethyl)-N-(8-methoxytetralin-2-yl)-N-propylamine [Compound 12] | 0.0035 |  | 0.011 |  | 0.038 |  | 0.017 |  | 2.2 |  | 2.6 |  |  | 0.092 | 0.0018 | 
